Test results published in publication PMC6345779, “Hypoculoside, a sphingoid base-like compound from Acremonium disrupts the membrane integrity of yeast cells” (Scientific Reports, 2019).

Assays:
[1] = system: Saccharomyces cerevisiae cells; experiment: Recovery of yeast cells on compound-free YPD agar after treatment (cytocidal vs cytostatic); type: cell-based; details: 21 µM for 24 h, then transfer to hypoculoside-free YPD agar plates
Experimental: We evaluated the potency of hypoculoside by examining its effect on the growth of Candida albicans strain (SC5314) using the Clinical and Laboratory Standards Institute (CLSI) guidelines. We used the well-known antifungal amphotericin B as a positive control. We exposed logarithmically growing Candida albicans cells to hypoculoside and amphotericin B at various concentrations and monitored the growth by recording the OD600 nm after 24 hours. […] We also tested the effect of hypoculoside on the growth of the Saccharomyces cerevisiae strain (BY4743). […] To test whether hypoculoside has cytocidal or cytostatic activity, we examined the ability of Saccharomyces cerevisiae cells to recover following treatment with either hypoculoside (21 µM) or DMSO for 24 h.
Legends for Supplementary figures and tables
Figure S1 Analysis of hypoculoside by MS/MS
Collision-Induced dissociation (CID) MS/MS fragmentation spectra of hypoculoside (8) generated at energies of 10 eV, 20 eV and 40 eV are depicted in panels A, B and C […]
Figure S2 Hypoculoside has antifungal, antibacterial and mammalian cytotoxic […]
B. Saccharomyces cerevisiae cultures in duplicate were treated with hypoculoside at the indicated concentrations in YPD medium at 30 °C for 24 hours. Growth of the yeast cultures as measured by OD600 nm is plotted against hypoculoside concentration. […]

[2] = system: Wild type yeast cells; experiment: FM 4-64FX fluorescence microscopy (endocytosis / membrane integrity); type: cell-based, Saccharomyces cerevisiae; details: 5.4 µM pre-treatment for 30 minutes
Experimental: To test if hypoculoside affects endocytosis, we used a dye FM 4–64FX which is a fixable analog of the FM 4-64 membrane stain. We incubated logarithmically growing yeast cells with either DMSO or hypoculoside for 30 minutes and then washed the cells off the compound and resuspended them in fresh growth medium containing FM 4-64FX to visualize endocytosis and vacuolar structure. In DMSO pre-treated cells, FM 4-64FX first stained the plasma membrane (Fig. 8A) at t = 0 and stained the cytoplasmic structures after 30′ indicating its uptake by endocytosis (Fig. 8A).
Figure 8 Hypoculoside but not hypoculine disrupts the membrane integrity of yeast cells. (A) Wild type yeast cells pre-treated with either DMSO or hypoculoside (5.4 μM) were exposed to FM 4-64FX. Uptake of FM 4-64FX after 0′, 30′ and 120′ was analyzed by fluorescence microscopy of fixed cells. […] They were then treated with propidium iodide (PI) and percentage of PI-staining cells was assayed by fluorescence microscopy. Representative images of cells visualized by bright field and fluorescence microscopy are shown along with quantification of PI-staining cells (N = 100 cells) in (C).
Labelling of yeast cells with FM4-64FX (Invitrogen) was done as previously reported. […] The images were acquired using an inverted fluorescence microscope ZEISS LSM 5 LIVE (Carl Zeiss, Oberkochen, Germany).

[3] = Mammalian cell cytotoxicity assay (PrestoBlue cell viability, 72 hours); type: cell-based; details: human, A549, MIA PaCa-2, PANC-1, one range for the lines, read-out: cytotoxicity IC50 against human lung and pancreatic carcinoma cell lines
Experimental: Effect of hypoculoside on the growth of three bacterial strains Staphylococcus aureus (ATCC 25923), Pseudomonas aeruginosa (ATCC 9027) and Klebsiella aerogenes (ATCC 13048) was assessed as previously described. Cytotoxicity of hypoculoside on the A549 human lung cell line and the pancreatic carcinoma cell lines MIA PaCa-2 and PANC-1 was determined as described before. A549 and MIA PaCa-2 were seeded at 1,500 cells per well, and PANC-1 cells were seeded at 2,500 cells per well in a 384-well microplate. Cells were treated with hypoculoside at various concentrations and incubated for 72 hours at 37 °C in the presence of 5% CO2. Cytotoxic effect of hypoculoside was measured using the PrestoBlue™ cell viability reagent (Life Technologies). Following incubation of the microplates with the dye for 2 hours, the fluorescence reading (Excitation/Emission: 560 nm/590 nm) was recorded using the Tecan Infinite M1000 Pro reader.

CC(N)C(O)CCCCCCCCCCCCCCCCCCC(O)C(C)OC1OC(CO)C(O)C(O)C1O (stereo not drawn) [hypoculoside, Hypoculoside]
cytocidal or cytostatic activity (ability to recover following treatment) [1]: cytocidal activity
FM 4-64FX staining pattern of pre-treated cells [2]: stained the cytoplasmic contents even at t = 0
IC50 at 72 h [3]: 9 to 14 µM
